# Measurements taken from ChEMBL document CHEMBL1671861, “Preclinical evaluation of 1H-benzylindole derivatives as novel human immunodeficiency virus integrase strand transfer inhibitors” (Antimicrob Agents Chemother, 2008).
# Calls of active or inactive are those of the source. No cut-off for these calls is given here.
# Legend:
# [1] = Selectivity index, ratio of CC50 for human MT4 cells to EC50 for Human immunodeficiency virus 1 3B; format: toxicity, cell-based; conditions: read-out: Ratio CC50/EC50
# [2] = tested on: Human immunodeficiency virus 1; experiment: Antiviral activity against Protease inhibitor-resistant Human immunodeficiency virus 1 infected in human MT4 cells assessed as inhibition of virus-induced cytopathic effect by MTT assay; format: functional, organism-based; conditions: Human immunodeficiency virus 1, MT4
# [3] = tested on: Simian immunodeficiency virus; experiment: Antiretroviral activity against Simian immunodeficiency virus MAC 251 infected in human MT4 cells assessed as inhibition of virus-induced cytopathic effect by MTT assay; format: functional, organism-based; conditions: MAC 251, MT4
# [4] = tested on: Human immunodeficiency virus 2; experiment: Antiretroviral activity against Human immunodeficiency virus 2 EHO infected in human MT4 cells assessed as inhibition of virus-induced cytopathic effect by MTT assay; format: functional, organism-based
# [5] = tested on: Human immunodeficiency virus 1; experiment: Antiretroviral activity against Human immunodeficiency virus 1 NL4.3 infected in human MT4 cells assessed as inhibition of virus-induced cytopathic effect by MTT assay; format: functional, organism-based; conditions: Human immunodeficiency virus 1, NL4.3, MT4
# [6] = tested on: Human immunodeficiency virus 1; experiment: Antiretroviral activity against Human immunodeficiency virus 1 3B infected in human MT4 cells assessed as inhibition of virus-induced cytopathic effect by MTT assay; format: functional, organism-based
# [7] = tested on: Human immunodeficiency virus 1; experiment: Antiviral activity against Reverse transcriptase inhibitor-resistant Human immunodeficiency virus 1 infected in human MT4 cells assessed as inhibition of virus-induced cytopathic effect by MTT assay; format: functional, organism-based; conditions: Human immunodeficiency virus 1, MT4
# [8] = tested on: Human immunodeficiency virus 2; experiment: Antiretroviral activity against Human immunodeficiency virus 2 ROD infected in human MT4 cells assessed as inhibition of virus-induced cytopathic effect by MTT assay; format: functional, organism-based; conditions: Human immunodeficiency virus 2, ISOLATE ROD
# [9] = tested on: Human immunodeficiency virus 1; experiment: Antiviral activity against non nucleoside reverse transcriptase inhibitor-resistant Human immunodeficiency virus 1 infected in human MT4 cells assessed as inhibition of virus-induced cytopathic effect by MTT assay; format: functional, organism-based; conditions: Human immunodeficiency virus 1, MT4
# [10] = tested on: Human immunodeficiency virus 1; experiment: Antiviral activity against Human immunodeficiency virus 1 3B infected in human MT4 cells assessed as inhibition of viral replication; format: functional, organism-based
# [11] = tested on: Human immunodeficiency virus 1; experiment: Ratio of EC50 for Human immunodeficiency virus 1 3B after 70 passages to EC50 for wild-type Human immunodeficiency virus 1 3B; format: functional
# [12] = tested on: Human immunodeficiency virus 1; experiment: Antiviral activity against Human immunodeficiency virus 1 infected in 293T cells assessed as integrated proximal DNA by Q-PCR; format: functional, organism-based
# [13] = tested on: Human immunodeficiency virus 1; experiment: Antiviral activity against Human immunodeficiency virus 1 infected in 293T cells assessed as inhibition of early cDNA synthesis by Lentiviral vector transduction assay; format: functional, organism-based
# [14] = tested on: Human immunodeficiency virus 1; experiment: Antiviral activity against R5 tropic Human immunodeficiency virus 1 BAL infected in PMBC; format: functional, organism-based
# [15] = Intrinsic clearance in human liver microsome; format: ADME; conditions: liver microsomes
# [16] = target: T1, Human immunodeficiency virus type 1 integrase (Human immunodeficiency virus 1, UniProt Q7ZJM1); experiment: Inhibition of Human immunodeficiency virus 1 integrase
# T1 sequence (Q7ZJM1 whole entry): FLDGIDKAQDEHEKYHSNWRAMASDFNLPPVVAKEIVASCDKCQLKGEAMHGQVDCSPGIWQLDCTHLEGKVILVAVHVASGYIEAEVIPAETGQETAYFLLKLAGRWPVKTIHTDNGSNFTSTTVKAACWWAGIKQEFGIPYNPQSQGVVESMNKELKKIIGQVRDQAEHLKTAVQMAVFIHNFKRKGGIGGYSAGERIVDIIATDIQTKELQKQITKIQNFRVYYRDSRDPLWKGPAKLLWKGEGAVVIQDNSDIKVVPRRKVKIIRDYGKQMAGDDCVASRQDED
# [17] = tested on: Human immunodeficiency virus 1; experiment: Antiviral activity against Human immunodeficiency virus 1 infected in 293T cells assessed as increase in amount of 2-LTR circles by Q-PCR in presence of 12.2 uM CHI/1043; format: functional, organism-based
# [18] = tested on: Human immunodeficiency virus 1; experiment: Antiviral activity against X4 tropic Human immunodeficiency virus 1 3B infected in PMBC; format: functional, organism-based
# [19] = Apparent permeability from apical to basolateral side of human Caco2 cells; format: ADME, cell-based; conditions: Caco-2
# [20] = tested on: Human immunodeficiency virus 1; experiment: Antiviral activity against Human immunodeficiency virus 1 during lentiviral transduction process assessed as inhibition of early cDNA synthesis by Lentiviral vector transduction assay; format: functional, organism-based
# [21] = target: T1, Human immunodeficiency virus type 1 integrase; experiment: Inhibition of Human immunodeficiency virus 1 integrase strand transfer activity
# [22] = Cytotoxicity against human MT4 cells by MTT assay; format: cell-based
smiles,measurement,setting,value
CCOC(=O)/C(O)=C/C(=O)c1cn(Cc2ccc(F)cc2)c2ccc(OC)cc12,selectivity ratio,[1],11
Cc1cn([C@H]2C[C@H](N=[N+]=[N-])[C@@H](CO)O2)c(=O)[nH]c1=O [ZIDOVUDINE],EC50,[2],26 nM
same,EC50,[3],11 nM
same,EC50,[4],56 nM
same,EC50,[5],21 nM
same,EC50,[6],27 nM
same,EC50,[7],200 nM
same,EC50,[8],67 nM
same,EC50,[9],20 nM
CCOC(=O)/C(O)=C/C(=O)c1cn(Cc2ccc(F)cc2)c2c(OC)ccc(OC)c12,selectivity ratio,[1],20
COc1cccc2c1c(C(=O)/C=C(\O)C(=O)O)cn2Cc1ccc(F)cc1,EC50,[10],600 nM
same,EC50,[2],680 nM
same,EC50,[3],4760 nM
same,Ratio EC50,[11],>40
same,inhibition,[12],inactive
same,EC50,[4],1760 nM
same,EC50,[5],730 nM
same,inhibition,[13],Active
same,EC50,[14],300 nM
same,microsomal CLint,[15],11 µL/min/mg
same,IC50,[16],110 nM
same,EC50,[6],600 nM
same,inhibition,[17],inactive
same,EC50,[7],860 nM
same,EC50,[18],300 nM
same,Papp A→B,[19],5.5 ×10⁻⁶ cm/s
same,EC50,[8],2110 nM
same,selectivity ratio,[1],69.8
same,inhibition,[20],inactive
same,EC50,[9],840 nM
COc1cc2c(cc1Cc1cccc(Cl)c1F)c(=O)c(C(=O)O)cn2[C@H](CO)C(C)C,EC50,[10],0.83 nM
COc1ccc2c(c1)c(C(=O)/C=C(\O)C(=O)O)cn2Cc1ccc(F)cc1,selectivity ratio,[1],12
COc1cccc2c(C(=O)/C=C(\O)C(=O)O)cn(Cc3ccc(F)cc3)c12,selectivity ratio,[1],12
O=C(NCc1ccc(F)cc1)c1nc(N2CCCCS2(=O)=O)c2cccnc2c1O,EC50,[10],4.9 nM
same,IC50,[21],7 nM
same,IC50,[16],2.3 nM
same,CC50,[22],2250 nM
same,selectivity ratio,[1],460
Cc1nnc(C(=O)NC(C)(C)c2nc(C(=O)NCc3ccc(F)cc3)c(O)c(=O)n2C)o1,EC50,[10],1.4 nM
CCOC(=O)/C(O)=C/C(=O)c1cn(Cc2ccc(F)cc2)c2c(OC)cccc12,selectivity ratio,[1],1
CCOC(=O)/C(O)=C/C(=O)c1cn(Cc2ccc(F)cc2)c2cccc(OC)c12,selectivity ratio,[1],24
O=C1Nc2ccc(Cl)cc2[C@@](C#CC2CC2)(C(F)(F)F)O1 [EFAVIRENZ],EC50,[3],> 31700 nM
same,EC50,[4],> 31700 nM
same,EC50,[8],> 31700 nM
COc1ccc2c(C(=O)/C=C(\O)C(=O)O)cn(Cc3ccc(F)cc3)c2c1,selectivity ratio,[1],8
O=C(O)C(=O)CC(=O)c1cc(OCc2ccccc2)cc(OCc2ccccc2)c1,EC50,[10],12400 nM
same,EC50,[2],7400 nM
same,EC50,[3],22600 nM
same,EC50,[5],24500 nM
same,CC50,[22],62000 nM
same,EC50,[6],12400 nM
same,EC50,[7],7200 nM
same,EC50,[8],62100 nM
same,selectivity ratio,[1],5
same,EC50,[9],19300 nM
COc1ccc(OC)c2c1c(C(=O)/C=C(\O)C(=O)O)cn2Cc1ccc(F)cc1,selectivity ratio,[1],100
O=C(O)/C(O)=C/C(=O)c1cn(Cc2ccccc2)c2ccccc12,EC50,[10],8350 nM
same,IC50,[21],2330 nM
same,IC50,[16],860 nM
same,CC50,[22],64100 nM
same,selectivity ratio,[1],8
Cc1c(O)cccc1C(=O)N[C@@H](CSc1ccccc1)[C@H](O)CN1C[C@H]2CCCC[C@H]2C[C@H]1C(=O)NC(C)(C)C,EC50,[2],170 nM
same,EC50,[3],50 nM
same,EC50,[4],49 nM
same,EC50,[5],23 nM
same,EC50,[6],28 nM
same,EC50,[7],29 nM
same,EC50,[8],50 nM
same,EC50,[9],35 nM
CCOC(=O)/C(O)=C/C(=O)c1cn(Cc2ccc(F)cc2)c2cc(OC)ccc12,selectivity ratio,[1],< 1
